Measurements as given in US20200095236A1, “ANTIBACTERIAL COMPOUNDS” (FORGE THERAPEUTICS, INC., priority 2017, published 2020).
Converted amounts (≈) assume the structure as drawn. Read-outs that look alike come from different tables or passages of the source.

Tests used:
[1] = system: TLR-4 activity of A. baumannii culture supernatants; assay: TLR4 assay: TLR4 activity of A. baumannii culture supernatants in HEK-Blue-hTLR4 cells; type: cell-based; details: Acinetobacter baumannii, HEK-Blue hTLR4, read-out: % TLR-4 activity
Procedure: The TLR4 assay measures activity of diluted filter-sterilized A. baumannii culture supernatants. The assay was performed as described in Lin et al, Mbio, 2012. Briefly, A. baumannii was passaged to mid log-phase in the presence of Forge LpxC inhibitors. Culture supernatants were harvested, filter-sterilized and diluted 1:1000. TLR4 activity of the supernatants was tested using HEK-Blue-hTLR4 cells (Invivogen) that carry NF-kB and AP-1 driven SEAP (secreted embryonic alkaline phosphatase) reporter gene.
Exemplary TLR4 assay data (% TLR-4 activity) for compounds in embodiments of the disclosure.

[2] = system: S. aureus; assay: Bacterial susceptibility testing, MIC by broth microdilution (CLSI); type: cell-based; details: Staphylococcus aureus, read-out: S. aureus MIC
Procedure: (§1) Minimal inhibitory concentrations (MIC) were determined by the broth microdilution method in accordance with the Clinical and Laboratory Standards Institute (CLSI) guidelines. In brief, organism suspensions were adjusted to a 0.5 McFarland standard to yield a final inoculum between 3×10^5 and 7×10^5 colony-forming units (CFU)/mL. Drug dilutions and inocula were made in sterile, cation adjusted Mueller-Hinton Broth (Beckton Dickinson). An inoculum volume of 100 μL was added to wells containing 100 μL of broth with 2-fold serial dilutions of drug. All inoculated microdilution trays were incubated in ambient air at 35° C. for 18-24 h. Following incubation, the lowest concentration of the drug that prevented visible growth (OD600 nm<0.05) was recorded as the MIC. Performance of the assay was monitored by the use of laboratory quality-control strains and levofloxacin, a compound with a defined MIC spectrum, in accordance with CLSI guidelines.

[3] = system: K. pneumoniae; assay: as above; type: cell-based; details: Klebsiella pneumoniae, read-out: K. pneumoniae MIC
Procedure: as §1

[4] = system: E. coli; assay: as above; type: cell-based; details: Escherichia coli, read-out: E. coli MIC
Procedure: as §1

[5] = molecular target: E. coli LpxC (Escherichia coli, UniProt P0A725); assay: LpxC Binding Assay (Rapid Fire MS assay); type: biochemical
[6] = broth microdilution, 35° C., 18-24 h

E. coli LpxC, sequence (P0A725 whole entry): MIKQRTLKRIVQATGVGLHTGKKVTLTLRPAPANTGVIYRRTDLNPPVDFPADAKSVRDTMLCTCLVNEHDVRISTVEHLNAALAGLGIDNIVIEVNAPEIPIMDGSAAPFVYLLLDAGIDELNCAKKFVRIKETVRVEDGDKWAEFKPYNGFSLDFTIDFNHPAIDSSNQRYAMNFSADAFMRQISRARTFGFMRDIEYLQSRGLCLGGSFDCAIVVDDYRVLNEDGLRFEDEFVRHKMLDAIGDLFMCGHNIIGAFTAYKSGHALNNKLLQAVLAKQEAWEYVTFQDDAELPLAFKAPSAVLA

MIC [2, 6] [mg/L] | MIC [3, 6] [mg/L] | MIC [4, 6] [mg/L] | Structure (SMILES) | IC50 [5] [µM] | also measured
 |  |  | O=C(CF)NCC(Cc1ccc(C#Cc2ccc(CN3CCCC3)cc2)cc1)c1nc[nH]c(=O)c1O (centres unmarked) [Compound 44, 2-fluoro-N-(2-(5-hydroxy-6-oxo-1,6-dihydropyrimidin-4-yl)-3-(4-((4-(pyrrolidin-1-ylmethyl)phenyl)ethynyl)phenyl)propyl)acetamide] |  | MIC [2]: > 32 mg/L; MIC [3]: > 32 mg/L; MIC [4]: > 32 mg/L
 |  |  | N[C@@H]1CCN(Cc2ccc(C#Cc3ccc(CC(CNC(=O)CF)c4nc[nH]c(=O)c4O)cc3)cc2)C1 (stereo partly drawn) [Compound 45, N-(3-(4-((4-(((R)-3-aminopyrrolidin-1-yl)methyl)phenyl)ethynyl)phenyl)-2-(5-hydroxy-6-oxo-1,6-dihydropyrimidin-4-yl)propyl)-2-fluoroacetamide] |  | MIC [2]: > 32 mg/L; MIC [3]: > 32 mg/L; MIC [4]: > 32 mg/L
> 32 | > 32 | > 32 | O=C(CN1CCC1)NCC(Cc1ccc(C#Cc2ccc(CN3CCOCC3)cc2)cc1)c1nc[nH]c(=O)c1O (centres unmarked) [Compound 46, 2-(azetidin-1-yl)-N-(2-(5-hydroxy-6-oxo-1,6-dihydropyrimidin-4-yl)-3-(4-((4-(morpholinomethyl)phenyl)ethynyl)phenyl)propyl)acetamide] |  | 
 |  |  | C=CCNCC(Cc1ccc(C#Cc2ccc(CN3CCOCC3)cc2)cc1)c1nc[nH]c(=O)c1O (centres unmarked) [Compound 56, 6-(1-(allylamino)-3-(4-((4-(morpholinomethyl)phenyl)ethynyl)phenyl)propan-2-yl)-5-hydroxypyrimidin-4(3H)-one] | 0.01 to 0.05 | 
 |  |  | C[C@H]1CN(Cc2ccc(C#Cc3ccc(CC(CNCCF)c4nc[nH]c(=O)c4O)cc3)cc2)C[C@H](C)O1 (stereo partly drawn) [Compound 79, 6-(1-(4-((4-(((2S,6S)-2,6-dimethylmorpholino)methyl)phenyl)ethynyl)phenyl)-3-((2-fluoroethyl)amino)propan-2-yl)-5-hydroxypyrimidin-4(3H)-one] | 0.1 to 1 | 
 |  |  | CS(=O)(=O)NCC(Cc1ccc(C#Cc2ccc(CN3CCOCC3)cc2)cc1)c1nc[nH]c(=O)c1O (centres unmarked) [Compound 80, N-(2-(5-hydroxy-6-oxo-1,6-dihydropyrimidin-4-yl)-3-(4-((4-(morpholinomethyl)phenyl)ethynyl)phenyl)propyl) methanesulfonamide] | 0.1 to 1 | 
 |  |  | Cc1nnc(NCC(Cc2ccc(C#Cc3ccc(CN4CCOCC4)cc3)cc2)c2nc[nH]c(=O)c2O)o1 (centres unmarked) [Compound 87, 5-hydroxy-6-(1-((5-methyl-1,3,4-oxadiazol-2-yl)amino)-3-(4-((4-(morpholinomethyl)phenyl)ethynyl)phenyl)propan-2-yl)pyrimidin-4(3H)-one] | 0.05 to 0.1 | 
 |  |  | O=c1[nH]cnc(CCc2ccc(C#Cc3ccc(CN4CCOCC4)cc3)c(F)c2)c1O [Compound 98, 6-(3-fluoro-4-((4-(morpholinomethyl)phenyl)ethynyl)phenethyl)-5-hydroxypyrimidin-4(3H)-one] | < 0.01 | 
 |  |  | CO[C@H]1CCN(Cc2ccc(C#Cc3ccc(CC(C(=O)NCC(F)F)c4nc[nH]c(=O)c4O)cc3)cc2)C1 (stereo partly drawn) [Compound 105, N-(2,2-difluoroethyl)-2-(5-hydroxy-6-oxo-1,6-dihydropyrimidin-4-yl)-3-(4-((4-(((S)-3-methoxypyrrolidin-1-yl)methyl)phenyl)ethynyl)phenyl) propanamide] | 0.05 to 0.1 | 
 |  |  | COC1CN(Cc2ccc(C#Cc3ccc(CC(C(=O)NCC(F)F)c4nc[nH]c(=O)c4O)cc3)cc2)C1 (centres unmarked) [Compound 109, N-(2,2-difluoroethyl)-2-(5-hydroxy-6-oxo-1,6-dihydropyrimidin-4-yl)-3-(4-((4-((3-methoxyazetidin-1-yl)methyl)phenyl)ethynyl)phenyl) propanamide] | 0.01 to 0.05 | 
 |  |  | COCCc1ccc(C#Cc2ccc(CC(C(=O)NCC(F)F)c3nc[nH]c(=O)c3O)cc2)cc1 (centres unmarked) [Compound 114, N-(2,2-difluoroethyl)-2-(5-hydroxy-6-oxo-1,6-dihydropyrimidin-4-yl)-3-(4-((4-(2-methoxyethyl)phenyl)ethynyl)phenyl) propanamide] | 0.05 to 0.1 | 
 |  |  | N#CC1CN(Cc2ccc(C#Cc3ccc(CC(C(=O)NCC(F)F)c4nc[nH]c(=O)c4O)cc3)cc2)C1 (centres unmarked) [Compound 149, 3-(4-((4-((3-cyanoazetidin-1-yl)methyl)phenyl)ethynyl)phenyl)-N-(2,2-difluoroethyl)-2-(5-hydroxy-6-oxo-1,6-dihydropyrimidin-4-yl)propanamide] | < 0.01 | 
 |  |  | N#CCC1CCN(Cc2ccc(C#Cc3ccc(CC(C(=O)NCC(F)F)c4nc[nH]c(=O)c4O)cc3)cc2)CC1 (centres unmarked) [Compound 152, 3-(4-((4-((4-(cyanomethyl)piperidin-1-yl)methyl)phenyl)ethynyl)phenyl)-N-(2,2-difluoroethyl)-2-(5-hydroxy-6-oxo-1,6-dihydropyrimidin-4-yl)propanamide] | 0.1 to 1 | 
 |  |  | O=C(NC1CC(F)(F)C1)C(Cc1ccc(C#Cc2ccc(CN3CCOCC3)cc2)cc1)c1nc[nH]c(=O)c1O (centres unmarked) [Compound 154, N-(3,3-difluorocyclobutyl)-2-(5-hydroxy-6-oxo-1,6-dihydropyrimidin-4-yl)-3-(4-((4-(morpholinomethyl)phenyl)ethynyl)phenyl) propanamide] | 0.05 to 0.1 | 
 |  |  | N#CC1CN(Cc2ccc(C#Cc3ccc(CC(C(=O)NCCF)c4nc[nH]c(=O)c4O)cc3)cc2)C1 (centres unmarked) [Compound 165, 3-(4-((4-((3-cyanoazetidin-1-yl)methyl)phenyl)ethynyl)phenyl)-N-(2-fluoroethyl)-2-(5-hydroxy-6-oxo-1,6-dihydropyrimidin-4-yl)propanamide] | < 0.01 | 
> 32 | < 1 | < 1 | O=c1[nH]cnc(CCc2ccc(C#Cc3ccc(CN4CCOCC4)cc3F)cc2)c1O [Compound 185, 6-(4-((2-fluoro-4-(morpholinomethyl)phenyl)ethynyl)phenethyl)-5-hydroxypyrimidin-4(3H)-one] |  | 
> 32 | < 1 | < 1 | O=c1[nH]cnc(CCc2ccc(C#Cc3ccc(CN4CCOCC4)c(F)c3)cc2)c1O [Compound 186, 6-(4-((3-fluoro-4-(morpholinomethyl)phenyl)ethynyl)phenethyl)-5-hydroxypyrimidin-4(3H)-one] |  | 
> 32 | 1 to 8 (≈ 2.33 to 18.7 µM) | < 1 | N#CC1CN(Cc2ccc(C#Cc3ccc(CCc4nc[nH]c(=O)c4O)cc3F)cc2)C1 [Compound 188, 1-(4-((2-fluoro-4-(2-(5-hydroxy-6-oxo-1,6-dihydropyrimidin-4-yl)ethyl)phenyl)ethynyl)benzyl)azetidine-3-carbonitrile] |  | 
 |  |  | O=c1[nH]cnc(C(CNCCF)Cc2ccc(C#Cc3ccc(CNC4CCOC4)cc3)cc2)c1O (centres unmarked) [Compound 198, 6-(1-((2-fluoroethyl)amino)-3-(4-((4-(((tetrahydrofuran-3-yl)amino)methyl)phenyl)ethynyl)phenyl)propan-2-yl)-5-hydroxypyrimidin-4(3H)-one] | 0.1 to 1 | 
 |  |  | O=c1[nH]cnc(C(CNCCF)Cc2ccc(C#Cc3ccc(CNC4COC4)cc3)cc2)c1O (centres unmarked) [Compound 207, 6-(1-((2-fluoroethyl)amino)-3-(4-((4-((oxetan-3-ylamino)methyl)phenyl)ethynyl)phenyl)propan-2-yl)-5-hydroxypyrimidin-4(3H)-one] | 0.05 to 0.1 | 
> 32 | < 1 | < 1 | O=c1[nH]cnc(CCc2ccc(C#Cc3ccc(CNC4CCOC4)cc3)cc2)c1O (centres unmarked) [Compound 241, 5-hydroxy-6-(4-((4-(((tetrahydrofuran-3-yl)amino)methyl)phenyl)ethynyl)phenethyl)pyrimidin-4(3H)-one] |  | 
> 32 | 1 to 8 (≈ 2.48 to 19.8 µM) | < 1 | COCCNCc1ccc(C#Cc2ccc(CCc3nc[nH]c(=O)c3O)cc2)cc1 [Compound 245, 5-hydroxy-6-(4-((4-(((2-methoxyethyl)amino)methyl)phenyl)ethynyl)phenethyl)pyrimidin-4(3H)-one] |  | 

Structure (SMILES) | MIC [2, 6] [mg/L] | MIC [3, 6] [mg/L] | MIC [4, 6] [mg/L] | IC50 [5] [µM] | also measured
CC(=O)NC[C@@H](Cc1ccc(C#Cc2ccc(CN3CCOCC3)cc2)cc1)c1nc[nH]c(=O)c1O [Compound 14, (R)-N-(2-(5-hydroxy-6-oxo-1,6-dihydropyrimidin-4-yl)-3-(4-((4-(morpholinomethyl)phenyl)ethynyl)phenyl)propyl)acetamide] | > 32 | 8 to 32 (≈ 16.4 to 65.8 µM) | 1 to 8 (≈ 2.06 to 16.4 µM) |  | activity at 4 µg/mL [1]: > 80%; activity at 8 µg/mL [1]: > 80%; activity at 16 µg/mL [1]: > 80%
O=c1[nH]cnc(CCc2ccc(C#Cc3ccc(CN4CC(O)C4)cc3)c(F)c2)c1O [Compound 187, 6-(3-fluoro-4-((4-((3-hydroxyazetidin-1-yl)methyl)phenyl)ethynyl)phenethyl)-5-hydroxypyrimidin-4(3H)-one] | > 32 | < 1 | < 1 |  | activity at 4 µg/mL [1]: 50 to 80%; activity at 8 µg/mL [1]: 50 to 80%; activity at 16 µg/mL [1]: 20 to 50%
